Experimental data published in US9061076B2, “Viral nanoparticle cell-targeted delivery platform” (North Carolina State University, priority 2007, dated 2015).

B1: PVN-CAR-F: native RCNMV conjugated via SMCC with fluorescein-labeled CAR targeting peptide (conjugate)
chain: LSITTPEEMIEKAKGETAYLPCKFTLSPEDQGPLDIEWLISPADNQKVDQVIILYSGDKIYDDYYPDLKGRVHFTSNDLKSGDASINVTNLQLSDIGTYQCKVKKAPGVANKKIHLVVLVKPSGARCYVDGSEEIGSDFKIKCEPKEGSLPLQYEWQKLSDSQKMPTSWLAEMTSSVISVKNASSEYSGTYSCTVRNRVGSDQCLLRLNVVPPSNKAGLIAGAIIGTLLALALIGLIIFCCRKKRREEKYEKEVHHDIREDVPPPKSRTSTARSYIGSNHSSLGSMSPSNMEGYSKTQYNQVPSEDFERTPQSPTLPPAKVAAPNLSRMGAIPVMIPAQSKDGSIV

Assays:
[1] = test system: HeLa cells; experiment: MTT cell viability assay; assay type: cell-based; details: 7 uM DOX, 24 hours
Protocol: The effect of DOX-PVN-CD46 on cell viability was measured using an MTT assay (FIG. 10A). HeLa cells were exposed to a free DOX, DOX-PVN, and DOX-PVN-CD46 for 24 hours at DOX concentrations ranging from 0.01 uM to 12 uM prior assaying. […] On the other hand, the percentage of viable cell was approximately 70-80% when the same concentration of free DOX (7 uM) was delivered to the cells. […] The PVN has two desirable properties as a drug delivery platform. First, it sequesters drugs effectively in blood and other biofluids. Second, it delivers drugs inside cells triggered by divalent ion concentration and with a timed release that increases the efficacy of drugs that rely on interactions with DNA. FACS was used to determine the dose-response of DOX-PVN-CD46-F after a 2-hour exposure (FIG. 10B). Cell detachment is an early sign of apoptosis. One method to determining cell survival is to count the number of adherent cells. At a PVN concentration of 1 pM, the number of adherent cells is reduced by approximately 25% (FIG. 10B). The FACS experiments in the lower panel of FIG. 10B counts only the adherent cells. Thus, the reduction in viable (adherent) cells accounts for the low levels of PVN internalization measured by fluorescence intensity. The number of adherent cells decreases to 50% at a DOX-PVN-CD46-F concentration of 100 μM (data not shown).

[2] = test system: HeLa cells; experiment: PVN internalization by FACS / fluorescent microscopy; assay type: cell-based
Protocol: Flow cytometry measurements were carried out with the Becton Dickinson FACSCalibur® running Cellquest Pro. Flow cytometry is sometimes referred to as “FACS” herein. The positive population of cells is determined by gating the right-hand tail of the distribution of the negative control sample for each individual cell line at 1%. This setting can then used to determine the percentage of positive cells for each of the above markers for each individual cell line.
We have observed that PVNs with targeting peptides attached to the surface can be internalized into mammalian cells. […] Surface coverage can be determined in a fluorometer using a fluorescein standard curve to quantify the number of fluorophores in the sample and the UV-vis spectrum to quantify the concentration of RCNMV. Based on the measured fluorescence, we determined that the surface of the PVN was labeled with approximately 60 CD46-F peptides. The endocytosis of these formulations was detected using fluorescent microscopy and FACS. FACS quantifies PVN cellular uptake and cargo release in a two-channel fluorescence measurement on populations of hundreds of thousands of cells. […]

Molecule | percentage of viable cells [1] | internalization in HeLa versus HepG2 cell lines [2]
COc1cccc2c1C(=O)c1c(O)c3c(c(O)c1C2=O)C[C@@](O)(C(=O)CO)C[C@@H]3O[C@H]1C[C@H](N)[C@H](O)[C@H](C)O1 [DOX, doxorubicin] | 70-80% | –
B1 | – | nearly the same level of internalization
